Results taken from US20090018194A1, “Use of antimicrobial agents derived from alliaceous plants for the prevention and control of crop diseases, post-harvest rot and as environmental disinifectant products” (DMC Research Center, S.L., priority 2007, published 2009).

How the values were obtained:
[1] = test system: Enteroccus faecalis ATCC 29212; test: agar diffusion test with impregnated cellulose discs; assay type: cell-based; conditions: incl. 6 mm disc
[2] = test system: Bacillus subtilis ATCC 6633; test: as above; assay type: cell-based; conditions: incl. 6 mm disc
[3] = test system: post-harvest rot; test: post-harvest rot of oranges originating directly from the field (not inoculated); assay type: in vivo
Method: Once the oranges had been artificially contaminated, the treatments were conducted by immersing the oranges in solutions of PTS and PTSO prepared at doses of 1600 and 2500 ppm, and were stored at 20° C.
The assessment of the effectiveness of PTS and PTSO comprised counting of the number of fruits affected by rot in the inoculated zone, to determine the percentage of fruit affected for each treatment and fungus inoculated, and expressing this effectiveness as a percentage of reduction of the affected fruit.
On the basis of the results obtained by the application of PTS and PTSO to oranges of the Navelina variety originating directly from the field, both products, applied in the specified doses, are effective in the control of post-harvest rot. Both PTS and PTSO in turn reduce by 50% the quantity of fruit affected at the end of the refrigeration period (28 days at a temperature of 5° C.) compared to the untreated fruit, as a result of which they are an effective alternative to the synthetic treatments conventionally used.

[4] = test system: Penicillium expansum; test: reduction of spores in suspension in absence or presence of organic matter; assay type: cell-based; conditions: PTSO 2000 ppm 1 min.
Description: (§1) In addition, under the real conditions of a disinfecting bath for boxes, crates and containers, as well as for the disinfection of rooms and work surfaces, organic material (soil residue, rotten fruit, leaves etc.) is generally present, which can reduce the action of the disinfectant agent. Therefore, the effectiveness of PTS and PTSO has also been assessed in the presence of organic matter on two pathogens that cause post-harvest rot of stone fruit (Penicillium expansum) and citrus fruit (Penicillium digitatum).

[5] = test system: Penicillium digitatum; test: as above; assay type: cell-based; conditions: PTSO 2000 ppm 1 min.
Description: as §1

[6] = test system: Fusarium spp.; test: field tests on affected asparagus, Fusarium spp. in the soil; assay type: in vivo; conditions: for % Reduction / % elimination: soil, 60 days after application, compared to untreated control
Method: The treatment doses used were 250, 500 and 1000 ppm of both active principles (PT and PTSO), and the initial incidence of the pathogen was compared with its presence 60 days after its application.
To analyze the growth of the crops infected by Fusarium spp. after the treatments, root and soil samples were taken and tests were performed in the laboratory to investigate the incidence of the pathogen in the roots and soil. The cultivation media used were potato dextrose agar and rose bengal agar (to prevent the invasive character of the Mucoralean fungi).
The soil analysis was conducted by sequential dilutions of the soils in physiological serum with a subsequent sowing in the above mentioned media. The analysis of the roots was performed after dissection of the infected tissues, which were deposited in triplicate on filter paper located above both media, and their evolution over time was studied.
The data are expressed as a percentage of elimination and reduction as a function of the treatment dose compared to the untreated control samples.

[7] = test system: Listeria innocua CECT 4030; test: agar diffusion test with impregnated cellulose discs; assay type: cell-based; conditions: incl. 6 mm disc
[8] = test system: Penicillium italicum; test: post-harvest rotting of inoculated oranges (Navelina), immersion treatment; assay type: in vivo; conditions: 4 days at 20° C., title: treated with PTSO
Method: (§2) This example considers the effectiveness of the active natural principles PTS and PTSO in two different doses for the control of post-harvest rotting of oranges ([…] variety), caused by controlled artificial inoculation with the fungi Penicillium digitatum, Penicillium expansum, Phytophthora citrophthora and Geotrichum candidum, the principal pathogens of this fruit. The inoculation of the oranges was carried out with suspensions of spores of the different wild fungal strains selected, according to the methodology described below. The first step was the isolation and identification of the fungal strains used in the study. The strains of filamentous fungi used in these tests (Penicillium digitatum, Penicillium italicum and Phytophthora citrophthora) were isolated from oranges affected by rot. In these isolation processes, it was not possible to detect any strain belonging to Geotrichum candidum, as a result of which it was necessary to obtain the latter substance from the Spanish Collection of Standard Cultures, where it is identified by reference CECT 1102. […] To promote the implantation of the inoculum of Geotrichum candidum, 200 ppm of cyclohexamide was added to the inoculum prior to its inoculation. […] The assessment of the effectiveness of PTS and PTSO comprised counting of the number of fruits affected by rot in the inoculated zone, to determine the percentage of fruit affected for each treatment and fungus inoculated, and expressing this effectiveness as a percentage of reduction of the affected fruit.

[9] = test system: Penicillium digitatum; test: as above; assay type: in vivo; conditions: title: treated with PTSO
Method: as §2

[10] = test system: the most characteristic diseases that affect these crops; test: in vivo tests against pre-harvest diseases in various crops (Table 7); conditions: pre-harvest diseases and pathogens listed in Table 7
Method: B. Likewise, numerous tests were conducted “in vivo” to determine the effectiveness of the products for pre- and post-harvest treatments, and also as disinfectant agents for agricultural soils and facilities in the food processing industries.
In post-harvest treatments, tests were conducted in strawberries, citrus fruits, stone fruits and tropical fruits. Tests were also conducted on vegetable plants in a greenhouse (tomatoes, melons, zucchini, peppers, cucumbers and green beans).

[11] = organic matter Absence, 0 hours
[12] = organic matter Absence, 2 hours
[13] = organic matter Absence, 3 hours
[14] = organic matter Presence, 0 hours
[15] = organic matter Presence, 1 hour
[16] = organic matter Presence, 2 hours
[17] = organic matter Presence, 3 hours

Question: Which results are given for `CCCSS(=O)(=O)CCC` [PTSO, Propyl Propyl Thiosulfonate]?
Answer: diameter of the microbial inhibition halo ([1]; 60 ppm): 26 mm; diameter of the microbial inhibition halo ([1]; 125 ppm): 33 mm; diameter of the microbial inhibition halo ([1]; 250 ppm): 45 mm; diameter of the microbial inhibition halo ([1]; 500 ppm): 45 mm; diameter of the microbial inhibition halo ([1]; 1000 ppm): 45 mm; diameter of the microbial inhibition halo ([2]; 60 ppm): 27 mm; diameter of the microbial inhibition halo ([2]; 125 ppm): 36 mm; diameter of the microbial inhibition halo ([2]; 250 ppm): 42 mm; diameter of the microbial inhibition halo ([2]; 500 ppm): 50 mm; diameter of the microbial inhibition halo ([2]; 1000 ppm): 68 mm; % of fruit affected ([3]; 2500 ppm, oranges refrigerated for 28 days at 5° C., 200 fruits not inoculated): 15%; reduction of the quantity of fruit affected compared to the untreated fruit ([3]; specified doses, end of the refrigeration period (28 days at 5° C.)): 50%; Reduction of the population (%) [4, 11]: 100%; Reduction of the population (%) ([4]; organic matter Absence, 1 hour): 100%; Reduction of the population (%) [4, 12]: 100%; Reduction of the population (%) [4, 13]: 100%; Reduction of the population (%) [4, 14]: 100%; Reduction of the population (%) [4, 15]: 100%; Reduction of the population (%) [4, 16]: 100%; Reduction of the population (%) [4, 17]: 85%; Reduction of the population (%) [5, 11]: 100%; Reduction of the population (%) ([5]; organic matter Absence, 1 hour): 100%; Reduction of the population (%) [5, 12]: 100%; Reduction of the population (%) [5, 13]: 100%; Reduction of the population (%) [5, 14]: 100%; Reduction of the population (%) [5, 15]: 100%; Reduction of the population (%) [5, 16]: 100%; Reduction of the population (%) [5, 17]: 100%; % Reduction ([6]; 250 ppm): 15%; % elimination ([6]; 250 ppm): 85%; % Reduction ([6]; 500 ppm): 25%; % elimination ([6]; 500 ppm): 75%; % Reduction ([6]; 1000 ppm): 0%; % elimination ([6]; 1000 ppm): 100%; effectiveness of the application (in words) ([6]; Fusarium spp. in asparagus, disinfection of agricultural soil): highly effective; diameter of the microbial inhibition halo ([7]; 60 ppm): 13 mm; diameter of the microbial inhibition halo ([7]; 125 ppm): 20 mm; diameter of the microbial inhibition halo ([7]; 250 ppm): 35 mm; diameter of the microbial inhibition halo ([7]; 500 ppm): 43 mm; diameter of the microbial inhibition halo ([7]; 1000 ppm): 52 mm; % Reduction ([8]; 1600 ppm): 80%; % Reduction ([8]; 2500 ppm): 85%; % Reduction ([9]; 1600 ppm, 5 days of treatment at 20° C.): 72%; % Reduction ([9]; 1600 ppm, 7 days of treatment at 20° C.): 40%; % Reduction ([9]; 2500 ppm, 5 days of treatment at 20° C.): 85%; % Reduction ([9]; 2500 ppm, 7 days of treatment at 20° C.): 57%; control capability against the most characteristic diseases of the crops (in words) [10]: high control capability
